Data set [1] can be described thus: Tmax in C57BL/6 mouse at 10 mg/kg, ip measured up to 24 hrs by LC-MS/MS analysis. The format is ADME, organism-based. Conditions: in vivo.
Data set [2] in a line: Tmax in C57BL/6 mouse at 20 mg/kg, po measured up to 24 hrs by LC-MS/MS analysis. Format: ADME, organism-based. Conditions: in vivo.
Data set [3] can be described thus: Apparent permeability of the compound across apical to basolateral side in human Caco-2 cells. Format: ADME, cell-based. (In general: Caco-2 cells form a polarised layer with tight junctions and transporters.)
Data set [4] is described as follows: Stability of the compound in DMEM media with 10% fetal bovine serum assessed as hydrolysis of prodrug at 25 uM measured for 5 mins by RP-HPLC analysis. Format: ADME, cell-free. Conditions: cattle.

For orientation: Tmax means the time at which the peak concentration occurs. Usually Papp A→B stands for the apparent permeability from the apical to the basolateral side of a cell layer. Turning to `Cl.NCCCOc1cc2ccccc2cc1C(=O)NCCOc1cc2ccccc2cc1C(=O)Nc1ccc(Cl)cc1O`, the Tmax in data set [1] is 0.25 h; in data set [2], 2 h. In addition, in data set [3], the Papp A→B is < 0.11 ×10⁻⁶ cm/s.

With `NCCCOc1cc2ccccc2cc1C(=O)NCCOc1cc2ccccc2cc1C(=O)Nc1ccc(Cl)cc1OCOP(=O)(O)O.O=C(O)C(F)(F)F`, the t1/2 in data set [4] turned out to be 2.61 h.

On to `NCCCOc1cc2ccccc2cc1C(=O)NCCOc1cc2ccccc2cc1C(=O)Nc1ccc(Cl)cc1OP(=O)(O)O.O=C(O)C(F)(F)F`, for which the results for the Tmax in data set [1] and in data set [2] were 1 h and 2 h, respectively.

(Values after ChEMBL document CHEMBL5046310, “Design, Synthesis and Biological Evaluation of Prodrugs of 666-15 as Inhibitors of CREB-Mediated Gene Transcription” (ACS Med Chem Lett, 2022).)
